This is an account of results in the supplement of paper PMC10307832.

Common to all, as to experiment: relative viability (nuclei count vs DMSO), 5 days (fraction); higher = more cells survive
Compound in the assay “Zebularine + Linsitinib”: O=c1ncccn1[C@@H]1O[C@H](CO)[C@@H](O)[C@H]1O [Zebularine] + C[C@]1(O)C[C@@H](c2nc(-c3ccc4ccc(-c5ccccc5)nc4c3)c3c(N)nccn32)C1 [Linsitinib] (partner 1 µM)
The method, boiled down:
(§1)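 A single step with final 0.05% Triton X-100, 1% formaldehyde and 1 ug/ml Hoechst fixed the cells and stained nuclei 5 days after treatment. Lung cancer cell lines in 1536-well plates had been treated by pin tool the day after seeding with one drug alone or a fixed anchor-drug dose plus five library-drug doses (not always all listed) in √10 steps, and nuclei were counted on 4× images. Relative viability is the ratio of nuclei in treated wells to nuclei in vehicle wells, taken as the median of duplicate plates.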

Compound in the assay “Zebularine + Crizotinib”: O=c1ncccn1[C@@H]1O[C@H](CO)[C@@H](O)[C@H]1O [Zebularine] + C[C@@H](Oc1cc(-c2cnn(C3CCNCC3)c2)cnc1N)c1c(Cl)ccc(F)c1Cl [Crizotinib] (partner 1 µM)
In a few lines: as §1

Compound in the assay “Zebularine + Pictilisib”: O=c1ncccn1[C@@H]1O[C@H](CO)[C@@H](O)[C@H]1O [Zebularine] + CS(=O)(=O)N1CCN(Cc2cc3nc(-c4cccc5[nH]ncc45)nc(N4CCOCC4)c3s2)CC1 [Pictilisib] (partner 1 µM)
The method, boiled down:
as §1

Compound in the assay “BI-D1870 + Foretinib”: CC(C)CCN1c2nc(Nc3cc(F)c(O)c(F)c3)ncc2N(C)C(=O)C1C [BI-D1870] + COc1cc2c(Oc3ccc(NC(=O)C4(C(=O)Nc5ccc(F)cc5)CC4)cc3F)ccnc2cc1OCCCN1CCOCC1 [Foretinib] (partner 0.25 µM)
The method, boiled down:
as §1

As for UMC-11, the relative viability amounted to 1.21 in the assay with Zebularine + Linsitinib (first compound 1 µM); 1.02 with Zebularine + Linsitinib (first compound 3.162 µM); 0.691 with Zebularine + Linsitinib (first compound 10 µM); 0.574 in the assay with Zebularine + Linsitinib (first compound 31.62 µM); 0.418 with Zebularine + Linsitinib (first compound 100 µM); 0.666 with Zebularine + Crizotinib (first compound 1 µM). The relative viability with Zebularine + Crizotinib (first compound 3.162 µM) was 0.489; in the assay with Zebularine + Crizotinib (first compound 10 µM), 0.397; with Zebularine + Crizotinib (first compound 31.62 µM), 0.374; with Zebularine + Crizotinib (first compound 100 µM), 0.343; with Zebularine + Pictilisib (first compound 1 µM) it was 0.89; with Zebularine + Pictilisib (first compound 3.162 µM) it was 0.451. The relative viability with Zebularine + Pictilisib (first compound 10 µM) amounted to 0.467; with Zebularine + Pictilisib (first compound 31.62 µM) it was 0.653; in the assay with Zebularine + Pictilisib (first compound 100 µM) it was 0.35; with BI-D1870 + Foretinib (first compound 0.04 µM) it was 1.1; with BI-D1870 + Foretinib (first compound 0.1265 µM), 0.986; with BI-D1870 + Foretinib (first compound 0.4 µM), 1.11. Besides, the relative viability in the assay with BI-D1870 + Foretinib (first compound 1.265 µM) turned out to be 0.897; with BI-D1870 + Foretinib (first compound 4 µM), 0.198.
